From EP4603105A1, “PHARMACEUTICAL COMPOSITION CONTAINING CYCLIC COMPOUND HAVING SELECTIVE KRAS INHIBITORY EFFECT AGAINST HRAS AND NRAS” (CHUGAI SEIYAKU KABUSHIKI KAISHA, priority 2022, dated 2024)
One block for each compound: values may come before it. Where a SMILES comes first, the peptide text is derived from it. Bridges are numbered along the chain shown (N, C = ends). [ ]: non-standard residue; d: D form. The star is where a group is joined. hPhe(3-Cl-4-CF3) = N[C@@H](CCc1ccc(C(F)(F)F)c(Cl)c1)C(=O)O; NPrPhe(4-CF3) = CCCN[C@@H](Cc1ccc(C(F)(F)F)cc1)C(=O)O; NMeGly(cPent) = CN[C@H](C(=O)O)C1CCCC1; Pro(4,4-Me2) = CC1(C)CN[C@H](C(=O)O)C1; Pro(4S-Me) = C[C@@H]1CN[C@H](C(=O)O)C1; Hyp = O=C(O)[C@@H]1C[C@@H](O)CN1; NMeD = CN[C@@H](CC(=O)O)C(=O)O; NMeL = CN[C@@H](CC(C)C)C(=O)O; Morpholide = C1CN(*)CCO1; NMeA = CN[C@@H](C)C(=O)O; Ac5c = NC1(C(=O)O)CCCC1; Aze = O=C(O)[C@@H]1CCN1; Ac4c = NC1(C(=O)O)CCC1; NEtG = CCNCC(=O)O; Sar = CNCC(=O)O

Assays:
[1] = biological target: HRAS wild-type protein (Homo sapiens, UniProt P01112); test: Binding to HRAS by surface plasmon resonance (SPR), KD and KD ratio to KRAS; conditions: ratio of the KD value with respect to HRAS wild-type protein to the KD value with respect to KRAS
Sequence of HRAS wild-type protein (P01112 whole entry): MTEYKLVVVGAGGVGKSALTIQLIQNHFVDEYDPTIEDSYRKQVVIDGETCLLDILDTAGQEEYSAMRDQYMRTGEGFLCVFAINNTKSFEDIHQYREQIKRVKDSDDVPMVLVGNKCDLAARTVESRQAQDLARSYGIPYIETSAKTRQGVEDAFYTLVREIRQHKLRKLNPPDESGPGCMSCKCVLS
Method in brief: (§1)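 Biotinylated GDP-bound RAS was captured at about 100–300 RU. Running buffer: HBS pH 7.4, 10 mM MgCl2, 10 µM GDP, 1 mM DTT, 0.01% Tween 20, 4% DMSO.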

[2] = tested on: human lung cancer strain NCI-H441; format: cell-based
Method in brief: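 Step one: dispense the test compound in serial DMSO dilutions. Step three: add the reagent and measure […].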

[3] = biological target: GDP-bound NRAS wild-type protein (Homo sapiens, UniProt P01111); test: Binding to NRAS by surface plasmon resonance (SPR), KD and KD ratio to KRAS; conditions: ratio of the KD value with respect to GDP-bound NRAS wild-type protein to the KD value with respect to KRAS
Sequence of GDP-bound NRAS wild-type protein (P01111 whole entry): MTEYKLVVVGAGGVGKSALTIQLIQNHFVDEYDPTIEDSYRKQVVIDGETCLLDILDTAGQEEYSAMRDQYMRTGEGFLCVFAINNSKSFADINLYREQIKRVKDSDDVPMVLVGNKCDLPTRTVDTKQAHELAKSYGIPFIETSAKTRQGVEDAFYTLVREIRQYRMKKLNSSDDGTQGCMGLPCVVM
Method in brief: as §1

SMILES: CCCN1C(=O)[C@@H]2CCN2C(=O)CN(C)C(=O)[C@H]([C@@H](C)CC)NC(=O)[C@H](CC(C)C)N(C)C(=O)C[C@@H](C(=O)N(C)C)N(C)C(=O)[C@H](C2CCCC2)N(C)C(=O)C2(CCC2)NC(=O)[C@@H]2C[C@@H](OCC)CN2C(=O)[C@H](CCc2ccc(C(F)(F)F)c(Cl)c2)NC(=O)CN(C)C(=O)[C@@H]1Cc1ccc(C(F)(F)F)cc1 [PP0445] ([NMeL]I[Sar][Aze][NPrPhe(4-CF3)][Sar][hPhe(3-Cl-4-CF3)][Hyp](Et)[Ac4c][NMeGly(cPent)][NMeD]-NMe2; lactam N-11)
HRAS /KRAS [1]: C (A compound having a KD ratio of 0.1 or more and less than 3 is denoted as C)
IC50 [2]: 1.7 nM
NRAS /KRAS [3]: C (A compound having a KD ratio of 0.1 or more and less than 3 is denoted as C)

SMILES: CCCN1C(=O)CN(C)C(=O)CN(C)C(=O)[C@H]([C@@H](C)CC)NC(=O)[C@H](CC(C)C)N(C)C(=O)C[C@@H](C(=O)N2CCOCC2)N(C)C(=O)[C@H](C2CCCC2)N(C)C(=O)C2(CCCC2)NC(=O)[C@@H]2CC(C)(C)CN2C(=O)[C@H](CCc2ccc(C(F)(F)F)c(Cl)c2)NC(=O)CN(C)C(=O)[C@@H]1Cc1ccc(C(F)(F)F)cc1 [PP0446] ([NMeL]I[Sar][Sar][NPrPhe(4-CF3)][Sar][hPhe(3-Cl-4-CF3)][Pro(4,4-Me2)][Ac5c][NMeGly(cPent)][NMeD]-Morpholide; lactam N-11)
HRAS /KRAS [1]: C (A compound having a KD ratio of 0.1 or more and less than 3 is denoted as C)
IC50 [2]: 1.6 nM
NRAS /KRAS [3]: B (a compound having 3 or more and less than 10 is denoted as B)

SMILES: CCCN1C(=O)CN(C)C(=O)CN(C)C(=O)[C@H]([C@@H](C)CC)NC(=O)[C@H](CC(C)C)N(C)C(=O)C[C@@H](C(=O)N2CCOCC2)N(C)C(=O)[C@H](C2CCCC2)N(C)C(=O)C2(CCCC2)NC(=O)[C@@H]2C[C@H](C)CN2C(=O)[C@H](CCc2ccc(C(F)(F)F)c(Cl)c2)NC(=O)CN(C)C(=O)[C@@H]1Cc1ccc(C(F)(F)F)cc1 [PP0447] ([NMeL]I[Sar][Sar][NPrPhe(4-CF3)][Sar][hPhe(3-Cl-4-CF3)][Pro(4S-Me)][Ac5c][NMeGly(cPent)][NMeD]-Morpholide; lactam N-11)
HRAS /KRAS [1]: C (A compound having a KD ratio of 0.1 or more and less than 3 is denoted as C)
IC50 [2]: 3.9 nM
NRAS /KRAS [3]: B (a compound having 3 or more and less than 10 is denoted as B)

SMILES: CCCN1C(=O)CN(C)C(=O)CNC(=O)[C@H]([C@@H](C)CC)NC(=O)[C@H](CC(C)C)N(C)C(=O)C[C@@H](C(=O)N2CCOCC2)N(C)C(=O)[C@H](C2CCCC2)N(C)C(=O)C2(CCCC2)NC(=O)[C@@H]2CC(C)(C)CN2C(=O)[C@H](CCc2ccc(C(F)(F)F)c(Cl)c2)NC(=O)CN(C)C(=O)[C@@H]1Cc1ccc(C(F)(F)F)cc1 [PP0448] ([NMeL]IG[Sar][NPrPhe(4-CF3)][Sar][hPhe(3-Cl-4-CF3)][Pro(4,4-Me2)][Ac5c][NMeGly(cPent)][NMeD]-Morpholide; lactam N-11)
HRAS /KRAS [1]: C (A compound having a KD ratio of 0.1 or more and less than 3 is denoted as C)
IC50 [2]: 2 nM
NRAS /KRAS [3]: B (a compound having 3 or more and less than 10 is denoted as B)

SMILES: CCCN1C(=O)CN(C)C(=O)CNC(=O)[C@H]([C@@H](C)CC)NC(=O)[C@H](CC(C)C)N(C)C(=O)C[C@@H](C(=O)N2CCOCC2)N(C)C(=O)[C@H](C2CCCC2)N(C)C(=O)C2(CCCC2)NC(=O)[C@@H]2C[C@H](C)CN2C(=O)[C@H](CCc2ccc(C(F)(F)F)c(Cl)c2)NC(=O)CN(C)C(=O)[C@@H]1Cc1ccc(C(F)(F)F)cc1 [PP0449] ([NMeL]IG[Sar][NPrPhe(4-CF3)][Sar][hPhe(3-Cl-4-CF3)][Pro(4S-Me)][Ac5c][NMeGly(cPent)][NMeD]-Morpholide; lactam N-11)
HRAS /KRAS [1]: C (A compound having a KD ratio of 0.1 or more and less than 3 is denoted as C)
IC50 [2]: 9.2 nM
NRAS /KRAS [3]: C (A compound having a KD ratio of 0.1 or more and less than 3 is denoted as C)

SMILES: CCCN1C(=O)CN(C)C(=O)CN(CC)C(=O)[C@H]([C@@H](C)CC)NC(=O)[C@H](CC(C)C)N(C)C(=O)C[C@@H](C(=O)N2CCOCC2)N(C)C(=O)[C@H](C2CCCC2)N(C)C(=O)C2(CCCC2)NC(=O)[C@@H]2CC(C)(C)CN2C(=O)[C@H](CCc2ccc(C(F)(F)F)c(Cl)c2)NC(=O)CN(C)C(=O)[C@@H]1Cc1ccc(C(F)(F)F)cc1 [PP0450] ([NMeL]I[NEtG][Sar][NPrPhe(4-CF3)][Sar][hPhe(3-Cl-4-CF3)][Pro(4,4-Me2)][Ac5c][NMeGly(cPent)][NMeD]-Morpholide; lactam N-11)
HRAS /KRAS [1]: C (A compound having a KD ratio of 0.1 or more and less than 3 is denoted as C)
IC50 [2]: 8.4 nM
NRAS /KRAS [3]: B (a compound having 3 or more and less than 10 is denoted as B)

SMILES: CCCN1C(=O)[C@@H]2CCN2C(=O)[C@H](C)N(C)C(=O)[C@H]([C@@H](C)CC)NC(=O)[C@H](CC(C)C)N(C)C(=O)C[C@@H](C(=O)N2CCOCC2)N(C)C(=O)[C@H](C2CCCC2)N(C)C(=O)C2(CCCC2)NC(=O)[C@@H]2CC(C)(C)CN2C(=O)[C@H](CCc2ccc(C(F)(F)F)c(Cl)c2)NC(=O)CN(C)C(=O)[C@@H]1Cc1ccc(C(F)(F)F)cc1 [PP0454] ([NMeL]I[NMeA][Aze][NPrPhe(4-CF3)][Sar][hPhe(3-Cl-4-CF3)][Pro(4,4-Me2)][Ac5c][NMeGly(cPent)][NMeD]-Morpholide; lactam N-11)
HRAS /KRAS [1]: C (A compound having a KD ratio of 0.1 or more and less than 3 is denoted as C)
IC50 [2]: 2.9 nM
NRAS /KRAS [3]: C (A compound having a KD ratio of 0.1 or more and less than 3 is denoted as C)

SMILES: CCCN1C(=O)[C@@H]2CCN2C(=O)CN(C)C(=O)[C@H]([C@@H](C)CC)NC(=O)[C@H](CC(C)C)N(C)C(=O)C[C@@H](C(=O)N2CCOCC2)N(C)C(=O)[C@H](C2CCCC2)N(C)C(=O)C2(CCCC2)NC(=O)[C@@H]2CC(C)(C)CN2C(=O)[C@H](CCc2ccc(C(F)(F)F)c(Cl)c2)NC(=O)CN(C)C(=O)[C@@H]1Cc1ccc(C(F)(F)F)cc1 [PP0456] ([NMeL]I[Sar][Aze][NPrPhe(4-CF3)][Sar][hPhe(3-Cl-4-CF3)][Pro(4,4-Me2)][Ac5c][NMeGly(cPent)][NMeD]-Morpholide; lactam N-11)
HRAS /KRAS [1]: C (A compound having a KD ratio of 0.1 or more and less than 3 is denoted as C)
IC50 [2]: 7 nM
NRAS /KRAS [3]: C (A compound having a KD ratio of 0.1 or more and less than 3 is denoted as C)

SMILES: CCCN1C(=O)[C@@H]2CCN2C(=O)CN(C)C(=O)[C@H]([C@@H](C)CC)NC(=O)[C@H](CC(C)C)N(C)C(=O)C[C@@H](C(=O)N2CCOCC2)N(C)C(=O)[C@H](C2CCCC2)N(C)C(=O)C2(CCCC2)NC(=O)[C@@H]2C[C@H](C)CN2C(=O)[C@H](CCc2ccc(C(F)(F)F)c(Cl)c2)NC(=O)CN(C)C(=O)[C@@H]1Cc1ccc(C(F)(F)F)cc1 [PP0457] ([NMeL]I[Sar][Aze][NPrPhe(4-CF3)][Sar][hPhe(3-Cl-4-CF3)][Pro(4S-Me)][Ac5c][NMeGly(cPent)][NMeD]-Morpholide; lactam N-11)
HRAS /KRAS [1]: B (a compound having 3 or more and less than 10 is denoted as B)
IC50 [2]: 12.1 nM
NRAS /KRAS [3]: C (A compound having a KD ratio of 0.1 or more and less than 3 is denoted as C)

The next lines start with results.

IC50 [2]: 23.2 nM
SMILES: CC[C@H](C)[C@@H]1NC(=O)[C@H](CC(C)C)N(C)C(=O)C[C@@H](C(=O)N2CCOCC2)N(C)C(=O)[C@H](C2CCCC2)N(C)C(=O)C2(CCCC2)NC(=O)[C@@H]2CCCN2C(=O)[C@H](CCc2ccc(C(F)(F)F)c(Cl)c2)NC(=O)CN(C)C(=O)[C@H](Cc2ccc(C)cc2)N2CC/C=C\C[C@@H](C2=O)N(C)C(=O)CN(C)C1=O [PP0461]
HRAS /KRAS [1]: A (a compound having 10 or more and less than 20 is denoted as A)
NRAS /KRAS [3]: A (a compound having 10 or more and less than 20 is denoted as A)

IC50 [2]: 15.1 nM
SMILES: CC[C@H](C)[C@@H]1NC(=O)[C@H](CC(C)C)N(C)C(=O)C[C@@H](C(=O)N2CCOCC2)N(C)C(=O)[C@H](C2CCCC2)N(C)C(=O)C2(CCCC2)NC(=O)[C@@H]2CCCN2C(=O)[C@H](CCc2ccc(C(F)(F)F)c(Cl)c2)NC(=O)CN(C)C(=O)[C@H](Cc2ccc(C(F)(F)F)cc2)N2CC=CC[C@@H](C2=O)N(C)C(=O)CN(C)C1=O [PP0462]
HRAS /KRAS [1]: C (A compound having a KD ratio of 0.1 or more and less than 3 is denoted as C)
NRAS /KRAS [3]: C (A compound having a KD ratio of 0.1 or more and less than 3 is denoted as C)

IC50 [2]: 26.3 nM
SMILES: CC[C@H](C)[C@@H]1NC(=O)[C@H](CC(C)C)N(C)C(=O)C[C@@H](C(=O)N2CCOCC2)N(C)C(=O)[C@H](C2CCCC2)N(C)C(=O)C2(CCCC2)NC(=O)[C@@H]2CCCN2C(=O)[C@H](CCc2ccc(C(F)(F)F)c(Cl)c2)NC(=O)CN(C)C(=O)[C@H](Cc2ccc(C(F)(F)F)cc2)N2CC/C=C\C[C@@H](C2=O)N(C)C(=O)CN(C)C1=O [PP0463]
HRAS /KRAS [1]: A (a compound having 10 or more and less than 20 is denoted as A)
NRAS /KRAS [3]: A (a compound having 10 or more and less than 20 is denoted as A)

IC50 [2]: 17.6 nM
SMILES: CC[C@H](C)[C@@H]1NC(=O)[C@H](CC(C)C)N(C)C(=O)C[C@@H](C(=O)N2CCOCC2)N(C)C(=O)[C@H](C2CCCC2)N(C)C(=O)C2(CCC2)NC(=O)[C@@H]2CC(F)(F)CN2C(=O)[C@H](CCc2cc(F)c(C(F)(F)F)c(F)c2)NC(=O)CN(C)C(=O)[C@H](Cc2ccc(C(F)(F)F)cc2)N2CCCCC[C@@H](C2=O)N(C)C(=O)CN(C)C1=O [PP0464]
HRAS /KRAS [1]: B (a compound having 3 or more and less than 10 is denoted as B)
NRAS /KRAS [3]: B (a compound having 3 or more and less than 10 is denoted as B)
